ChEMBL document CHEMBL1137905, “Synthesis of anilino-monoindolylmaleimides as potent and selective PKCbeta inhibitors” (Bioorg Med Chem Lett, 2004)
pIC50: −log10 of the molar value.

How the values were obtained:
[1] = molecular target: T1, Protein kinase C epsilon type (Homo sapiens, UniProt Q02156); assay: Inhibitory concentration against recombinant human Protein kinase C epsilon
T1 sequence (Q02156 whole entry): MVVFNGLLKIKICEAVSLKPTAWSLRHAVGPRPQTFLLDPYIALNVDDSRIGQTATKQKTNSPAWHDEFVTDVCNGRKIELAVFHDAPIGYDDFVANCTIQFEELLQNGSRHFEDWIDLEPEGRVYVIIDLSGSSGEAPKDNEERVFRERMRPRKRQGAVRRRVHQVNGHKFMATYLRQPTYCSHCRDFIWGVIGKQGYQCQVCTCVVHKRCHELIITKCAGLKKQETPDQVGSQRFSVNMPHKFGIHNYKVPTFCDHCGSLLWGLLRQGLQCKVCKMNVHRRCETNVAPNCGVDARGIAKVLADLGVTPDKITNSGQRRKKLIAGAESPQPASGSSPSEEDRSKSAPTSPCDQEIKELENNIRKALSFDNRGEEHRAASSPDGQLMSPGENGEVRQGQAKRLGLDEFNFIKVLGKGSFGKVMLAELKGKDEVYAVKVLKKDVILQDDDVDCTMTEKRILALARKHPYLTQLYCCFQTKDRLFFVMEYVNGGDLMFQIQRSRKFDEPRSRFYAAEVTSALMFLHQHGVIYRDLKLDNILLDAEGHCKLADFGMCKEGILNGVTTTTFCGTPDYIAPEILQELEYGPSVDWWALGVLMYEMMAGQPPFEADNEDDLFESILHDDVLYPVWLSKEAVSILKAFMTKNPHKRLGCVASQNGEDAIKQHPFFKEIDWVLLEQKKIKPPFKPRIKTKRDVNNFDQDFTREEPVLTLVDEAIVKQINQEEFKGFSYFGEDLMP

[2] = molecular target: T2, Protein kinase C beta type (Homo sapiens, UniProt P05771); assay: Inhibitory concentration against recombinant human Protein kinase C beta 1
T2 sequence (P05771 whole entry): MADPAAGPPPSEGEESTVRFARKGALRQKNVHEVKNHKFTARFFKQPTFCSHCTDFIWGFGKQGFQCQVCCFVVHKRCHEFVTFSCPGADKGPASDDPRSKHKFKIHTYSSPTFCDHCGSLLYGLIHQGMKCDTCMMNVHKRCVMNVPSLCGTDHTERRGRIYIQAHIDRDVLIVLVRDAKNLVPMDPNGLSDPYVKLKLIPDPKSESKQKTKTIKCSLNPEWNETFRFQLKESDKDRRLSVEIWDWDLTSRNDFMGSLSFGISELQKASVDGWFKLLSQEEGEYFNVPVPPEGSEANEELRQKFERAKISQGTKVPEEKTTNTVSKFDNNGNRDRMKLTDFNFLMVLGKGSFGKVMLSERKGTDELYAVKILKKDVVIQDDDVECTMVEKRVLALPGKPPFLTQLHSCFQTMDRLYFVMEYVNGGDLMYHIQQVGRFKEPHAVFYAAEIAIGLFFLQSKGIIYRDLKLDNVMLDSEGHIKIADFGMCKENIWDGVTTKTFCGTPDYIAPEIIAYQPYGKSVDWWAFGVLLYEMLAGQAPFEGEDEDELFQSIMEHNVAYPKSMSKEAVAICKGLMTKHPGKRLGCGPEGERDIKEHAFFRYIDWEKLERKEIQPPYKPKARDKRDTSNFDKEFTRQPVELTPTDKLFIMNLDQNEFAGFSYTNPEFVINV

[3] = molecular target: T2, Protein kinase C beta type; assay: Inhibitory concentration against recombinant human Protein kinase C beta 2
[4] = molecular target: Protein kinase C alpha type (Homo sapiens, UniProt P17252); assay: Inhibitory concentration against recombinant human Protein kinase C alpha

Row | Structure (SMILES) | pIC50 [1] | pIC50 [3] | other results
1 | O=C1NC(=O)C(c2c[nH]c3ccccc23)=C1Nc1ccccc1 | < 5.00 | – | pIC50 [2]: 6.40
2 | O=C1NC(=O)C(c2cn(CCCN3CCCC3)c3ccccc23)=C1Nc1ccccc1 | < 5.00 | – | –
3 | CN1CCN(CCCn2cc(C3=C(Nc4ccccc4)C(=O)NC3=O)c3ccccc32)CC1 | < 5.00 | – | –
4 | CC(C)c1cccc(NC2=C(c3c[nH]c4ccccc34)C(=O)NC2=O)c1 | – | 5.54 | –
5 | CN(C)CCCCn1cc(C2=C(Nc3ccccc3)C(=O)NC2=O)c2ccccc21 | 5.23 | – | –
6 | CN(C)CCCCCn1cc(C2=C(Nc3ccccc3)C(=O)NC2=O)c2ccccc21 | 5.41 | 7.39 | pIC50 [4]: 5.65
7 | CN(C)CCn1cc(C2=C(Nc3ccccc3)C(=O)NC2=O)c2ccccc21 | < 5.00 | – | –
8 | O=C1NC(=O)C(c2c[nH]c3ccccc23)=C1NC1CCCCC1 | – | 5.61 | –
9 | O=C1NC(=O)C(c2cn(CCCO)c3ccccc23)=C1Nc1ccccc1 | 5.20 | – | –
10 | COc1cccc(NC2=C(c3c[nH]c4ccccc34)C(=O)NC2=O)c1 | – | 6.13 | –
11 | Cc1ccc(NC2=C(c3c[nH]c4ccccc34)C(=O)NC2=O)cc1 | – | 6.32 | –
12 | CN(C1=C(c2c[nH]c3ccccc23)C(=O)NC1=O)c1ccccc1 | – | 6.03 | –
13 | O=C1NC(=O)C(c2cn(CCCN3CCCCC3)c3ccccc23)=C1Nc1ccccc1 | 5.47 | – | –
14 | CN(C)CCCn1cc(C2=C(Nc3cccc(Cl)c3)C(=O)NC2=O)c2ccccc21 | 5.58 | – | –
15 | O=C1NC(=O)C(c2c[nH]c3ccccc23)=C1NCc1ccccc1 | – | < 5.00 | –
16 | CN(C)CCCn1cc(C2=C(Nc3ccccc3)C(=O)NC2=O)c2ccccc21 | 5.46 | – | –
17 | O=C1NC(=O)C(c2cn(CCCn3ccnc3)c3ccccc23)=C1Nc1ccccc1 | 5.55 | – | pIC50 [2]: 7.68
18 | Cc1cccc(NC2=C(c3cn(CCCN(C)C)c4ccccc34)C(=O)NC2=O)c1 | 5.46 | – | –
19 | O=C1NC(=O)C(c2c[nH]c3ccccc23)=C1Nc1cccc(C(F)(F)F)c1 | – | 5.84 | –
20 | Cc1ccccc1NC1=C(c2c[nH]c3ccccc23)C(=O)NC1=O | – | 5.67 | –
21 | N=C(N)SCCCn1cc(C2=C(Nc3ccccc3)C(=O)NC2=O)c2ccccc21 | 7.24 | – | –
22 | O=C1NC(=O)C(c2c[nH]c3ccccc23)=C1c1c[nH]c2ccccc12 [RO-316233] | 5.12 | 6.67 | pIC50 [4]: 5.80; pIC50 [2]: 6.52
